Values after ≈ are worked out from the molar mass of the structure shown.
Tests used:
Type in all cases: cell-based, Staphylococcus aureus
Staph aureus 2811 = assay: MIC, microtiter broth dilution (CLSI M7-A7), Assay 1, Table 12 column D, no serum; conditions: for MIC: Staphylococcus aureus, 2811, Staph aureus 2811, Assay 1, no serum; for MIC, column D: Staph aureus 2811, Assay 1, no serum
Summary of the method: (§1)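 CLSI microdilution (M7-A7; M100-S16 interpretation); DMSO stocks at 10 mg/ml; endpoint = no macroscopically visible growth; MIC μg/ml, geometric mean if run more than once.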

Staph aureus 1095 MRSA = assay: MIC, microtiter broth dilution (CLSI M7-A7), Assay 1, Table 12 column A, no serum; conditions: Assay 1, no serum; for MIC: Staphylococcus aureus, MRSA
Summary of the method: as §1

Staph aureus 1146 [1] = assay: MIC in Mueller-Hinton Broth with 50% pooled inactivated human serum, Assay 1, Table 12; conditions: for MIC: Staphylococcus aureus, 1146, Staph aureus 1146, Assay 1, 50% human serum, read-out: MIC, column C; for MIC, column C: Staph aureus 1146, Assay 1, 50% human serum
Summary of the method: as §1

Staph aureus 2812 = assay: MIC, microtiter broth dilution (CLSI M7-A7), Assay 1, Table 12 column E, no serum; conditions: for MIC: Staphylococcus aureus, 2812, Staph aureus 2812, Assay 1, no serum; for MIC, column E: Staph aureus 2812, Assay 1, no serum
Summary of the method: as §1

Staph aureus 1146 [2] = assay: MIC, microtiter broth dilution (CLSI M7-A7), Assay 1, Table 12 column B, no serum; conditions: for MIC: Staphylococcus aureus, 1146, Staph aureus 1146, Assay 1, no serum; for MIC, column B: Staph aureus 1146, Assay 1, no serum
Summary of the method: as §1

Structure (SMILES) | MIC (Staph aureus 2811) | MIC (Staph aureus 1095 MRSA) | MIC (Staph aureus 1146 [1]) | MIC (Staph aureus 2812) | MIC (Staph aureus 1146 [2]) | MIC, column D (Staph aureus 2811) | MIC, column A (Staph aureus 1095 MRSA) | MIC, column C (Staph aureus 1146 [1]) | MIC, column E (Staph aureus 2812) | MIC, column B (Staph aureus 1146 [2])
COC(=O)[C@H]1CN(C2CC(c3nnc(C)o3)C2)CC[C@H]1CCC(O)c1ccnc2ccc(OC)cc12 (stereo partly drawn) [Example 99, methyl (3R,4R)-4-[3-hydroxy-3-(6-methoxyquinolin-4-yl)propyl]-1-[3-(5-methyl-1,3,4-oxadiazol-2-yl)cyclobutyl]piperidine-3-carboxylate] | 64 µg/mL (≈ 129 µM) | 64 µg/mL (≈ 129 µM) | > 64 µg/mL | > 64 µg/mL | 16 µg/mL (≈ 32.3 µM) | – | – | – | – | –
COc1ccc2ncc(Cl)c(CCNC3CCN(C4CC(c5ccccc5)C4)C(C(=O)O)C3)c2c1 (centres unmarked) [Example 101, (2,4)-4-{[2-(3-chloro-6-methoxyquinolin-4-yl)ethyl]amino}-1-(3-phenylcyclobutyl)piperidine-2-carboxylic acid] | – | – | – | – | – | <=.0625 μg/ml | 0.125 µg/mL (≈ 0.253 µM) | 2 µg/mL (≈ 4.05 µM) | <=.0625 μg/ml | 0.125 µg/mL (≈ 0.253 µM)
COc1ccc2nccc(C(O)CC[C@@H]3CCN(C4CC(c5nc(C)no5)C4)C[C@@H]3C(=O)O)c2c1 (stereo partly drawn) [Example 102, (3R,4R)-4-[3-hydroxy-3-(6-methoxyquinolin-4-yl)propyl]-1-[3-(3-methyl-1,2,4-oxadiazol-5-yl)cyclobutyl]piperidine-3-carboxylic acid] | 8 µg/mL (≈ 16.6 µM) | 16 µg/mL (≈ 33.3 µM) | 64 µg/mL (≈ 133 µM) | 16 µg/mL (≈ 33.3 µM) | 16 µg/mL (≈ 33.3 µM) | – | – | – | – | –
COc1ccc2nccc(C(O)CC[C@@H]3CCN(C4CC(Oc5ccccn5)C4)C[C@@H]3C(=O)O)c2c1 (stereo partly drawn) [Example 104, (3R,4R)-4-[3-hydroxy-3-(6-methoxyquinolin-4-yl)propyl]-1-[3-(pyridin-2-yloxy)cyclobutyl]piperidine-3-carboxylic acid] | > 64 µg/mL | > 64 µg/mL | > 64 µg/mL | > 64 µg/mL | > 64 µg/mL | – | – | – | – | –
COC(=O)[C@H]1CN(C2CC(c3cc(C)no3)C2)CC[C@H]1CCC(O)c1ccnc2ccc(OC)cc12 (stereo partly drawn) [Example 105, methyl (3R,4R)-4-[3-hydroxy-3-(6-methoxyquinolin-4-yl)propyl]-1-[3-(3-methylisoxazol-5-yl)cyclobutyl]piperidine-3-carboxylate] | 2 µg/mL (≈ 4.05 µM) | 1 µg/mL (≈ 2.03 µM) | > 64 µg/mL | 2 µg/mL (≈ 4.05 µM) | 2 µg/mL (≈ 4.05 µM) | – | – | – | – | –
COc1ccc2nccc(CCCC3(C(=O)O)CCN(CC4CC4c4ccccc4)CC3)c2c1 (centres unmarked) [Example 107, 4-[3-(6-methoxyquinolin-4-yl)propyl]-1-{[(1,2)-2-phenylcyclopropyl]methyl}piperidine-4-carboxylic acid] | – | – | – | – | – | 64 µg/mL (≈ 140 µM) | 64 µg/mL (≈ 140 µM) | >64 µg/mL | 16 µg/mL (≈ 34.9 µM) | 64 µg/mL (≈ 140 µM)
COc1ccc2nccc(C(O)CC[C@@H]3CCN(C4CC(c5nnc(C)o5)C4)C[C@@H]3C(=O)O)c2c1 (stereo partly drawn) [Example 110, (3R,4R)-4-[3-hydroxy-3-(6-methoxyquinolin-4-yl)propyl]-1-[3-(5-methyl-1,3,4-oxadiazol-2-yl)cyclobutyl]piperidine-3-carboxylic acid] | > 64 µg/mL | > 64 µg/mL | > 64 µg/mL | > 64 µg/mL | 32 µg/mL (≈ 66.6 µM) | – | – | – | – | –
COc1ccc2nccc(C(O)CC[C@@H]3CCN(C4CC(c5cc(C)no5)C4)C[C@@H]3C(=O)O)c2c1 (stereo partly drawn) [Example 115, (3R,4R)-4-[3-hydroxy-3-(6-methoxyquinolin-4-yl)propyl]-1-[3-(3-methylisoxazol-5-yl)cyclobutyl]piperidine-3-carboxylic acid] | 8 µg/mL (≈ 16.7 µM) | 32 µg/mL (≈ 66.7 µM) | 64 µg/mL (≈ 133 µM) | 16 µg/mL (≈ 33.4 µM) | 8 µg/mL (≈ 16.7 µM) | – | – | – | – | –
COc1ccc2nccc([C@@H](O)CNC3CCN([C@H]4C[C@@H](c5ccccc5)C4)CC3C(=O)O)c2c1 (stereo partly drawn) [Example 123, 4-{[(2R)-2-hydroxy-2-(6-methoxyquinolin-4-yl)ethyl]amino}-1-(cis-3-phenylcyclobutyl)piperidine-3-carboxylic acid] | 16 µg/mL (≈ 33.6 µM) | 32 µg/mL (≈ 67.3 µM) | 32 µg/mL (≈ 67.3 µM) | 32 µg/mL (≈ 67.3 µM) | 16 µg/mL (≈ 33.6 µM) | – | – | – | – | –
COc1ccc2ncc(Cl)c(CCCC3(C(=O)O)CCN(C4CN(c5ccccn5)C4)CC3)c2c1 [Example 126, 4-(3-(3-chloro-6-methoxyquinolin-4-yl)propyl)-1-(1-(pyridin-2-yl)azetidin-3-yl)piperidine-4-carboxylic add] | – | – | – | – | – | 2 µg/mL (≈ 4.04 µM) | >64 µg/mL | >64 µg/mL | 4 µg/mL (≈ 8.08 µM) | 8 µg/mL (≈ 16.2 µM)
COc1ccc2nccc(C(O)CC[C@@H]3CCN(C4CN(Cc5ccccn5)C4)C[C@@H]3C(=O)O)c2c1 (stereo partly drawn) [Example 127, (3R,4R)-4-(3-hydroxy-3-(6-methoxyquinolin-4-yl)propyl)-1-(1-(pyridine-2-ylmethyl)azetidin-3-yl)piperdine-3-carboxylic acid] | – | – | – | – | – | >64 µg/mL | >64 µg/mL | >64 µg/mL | >64 µg/mL | >64 µg/mL
COc1ccc2nccc(C(O)CC[C@@H]3CCN(C4CN(C5CCOCC5)C4)C[C@@H]3C(=O)O)c2c1 (stereo partly drawn) [Example 128, (3R,4R)-4-[3-hydroxy-3-(6-methoxyquinolin-4-yl)propyl]-1-[1-(tetrahydro-2H-pyran-4-yl)azetidin-3-yl] piperidine-3-carboxylic acid] | > 64 µg/mL | > 64 µg/mL | > 64 µg/mL | > 64 µg/mL | > 64 µg/mL | – | – | – | – | –
COc1ccc2nccc(C(O)CC[C@@H]3CCN(C4CN(C5CCOC5)C4)C[C@@H]3C(=O)O)c2c1 (stereo partly drawn) [Example 129, (3R,4R)-4-[3-hydroxy-3-(6-methoxyquinolin-4-yl)propyl]-1-[1-(tetrahydrofuran-3-yl)azetidin-3-yl] piperidine-3-carboxylic acid] | > 64 µg/mL | > 64 µg/mL | > 64 µg/mL | > 64 µg/mL | > 64 µg/mL | – | – | – | – | –

Further lines, with some results ahead:

MIC (Staph aureus 2811) | MIC (Staph aureus 1095 MRSA) | MIC (Staph aureus 1146 [1]) | MIC (Staph aureus 2812) | MIC (Staph aureus 1146 [2]) | Structure (SMILES) | MIC, column D (Staph aureus 2811) | MIC, column A (Staph aureus 1095 MRSA) | MIC, column C (Staph aureus 1146 [1]) | MIC, column E (Staph aureus 2812) | MIC, column B (Staph aureus 1146 [2])
2 µg/mL (≈ 4.14 µM) | 4 µg/mL (≈ 8.29 µM) | 64 µg/mL (≈ 133 µM) | 4 µg/mL (≈ 8.29 µM) | 2 µg/mL (≈ 4.14 µM) | COc1ccc2ncc(F)c(CCCC3(C(=O)O)CCN(C4CC(c5nc(C)no5)C4)CC3)c2c1 (centres unmarked) [Example 98, 4-[3-(3-fluoro-6-methoxyquinolin-4-yl)propyl]-1-[3-(3-methyl-1,2,4-oxadiazol-5-yl)cyclobutyl]piperidine-4-carboxylic acid] | – | – | – | – | –
0.25 µg/mL (≈ 0.506 µM) | 0.5 µg/mL (≈ 1.01 µM) | > 64 µg/mL | 0.5 µg/mL (≈ 1.01 µM) | 0.5 µg/mL (≈ 1.01 µM) | COc1ccc2ncc(Cl)c(CCNC3(C(=O)O)CCN(C4CC(c5ccccc5)C4)CC3)c2c1 (centres unmarked) [Example 100, 4-{[2-(3-chloro-6-methoxyquinolin-4-yl)ethyl]amino}-1-(3-phenylcyclobutyl)piperidine-4-carboxylic acid] | – | – | – | – | –
0.25 µg/mL (≈ 0.512 µM) | 0.5 µg/mL (≈ 1.02 µM) | 4 µg/mL (≈ 8.19 µM) | 0.25 µg/mL (≈ 0.512 µM) | 0.25 µg/mL (≈ 0.512 µM) | COc1ccc2nccc(C(O)CC[C@@H]3CCN(C4CC(Cc5ccccc5)C4)C[C@@H]3C(=O)O)c2c1 (stereo partly drawn) [Example 103, (3R,4R)-1-(3-benzylcyclobutyl)-4-[3-hydroxy-3-(6-methoxyquinolin-4-yl)propyl]piperidine-3-carboxylic acid] | – | – | – | – | –
≤ 0.0625 µg/mL | ≤ 0.0625 µg/mL | 32 µg/mL (≈ 67 µM) | ≤ 0.0625 µg/mL | ≤ 0.0625 µg/mL | COc1ccc2ncc(F)c(CCCC3(C(=O)O)CCN(C4CC(c5ccccc5)C4)CC3)c2n1 (centres unmarked) [Example 106, 4-(3-(3-fluoro-6-methoxy-1,5-naphthyridin-4-yl)propyl)-1-(3-phenylcyclobutyl)piperidine-4-carboxylic acid] | – | – | – | – | –
≤ 0.0625 µg/mL | ≤ 0.0625 µg/mL | 64 µg/mL (≈ 130 µM) | ≤ 0.0625 µg/mL | ≤ 0.0625 µg/mL | COc1ccc2ncc(Cl)c(CCCC3(C(=O)O)CCN(C4CC(c5ccccc5)C4)CC3)c2c1 (centres unmarked) [Example 108, 4-[3-(3-chloro-6-methoxyquinolin-4-yl)propyl]-1-(3-phenylcyclobutyl)piperidine-4-carboxylic acid] | – | – | – | – | –
0.25 µg/mL (≈ 0.491 µM) | 1 µg/mL (≈ 1.96 µM) | > 64 µg/mL | 1 µg/mL (≈ 1.96 µM) | 0.5 µg/mL (≈ 0.982 µM) | COc1ccc2ncc(Cl)c(CCCC3(C(=O)O)CCN(C4CC(c5ccccc5)C4)CC3O)c2c1 (centres unmarked) [Example 109, 4-[3-(3-chloro-6-methoxyquinolin-4-yl)propyl]-3-hydroxy-1-(3-phenylcyclobutyl)piperidine-4-carboxylic acid] | – | – | – | – | –
1 µg/mL (≈ 2.18 µM) | 4 µg/mL (≈ 8.7 µM) | > 64 µg/mL | 1 µg/mL (≈ 2.18 µM) | 2 µg/mL (≈ 4.35 µM) | COc1ccc2ncnc(CCCC3(C(=O)O)CCN(C4CC(c5ccccc5)C4)CC3)c2c1 (centres unmarked) [Example 111, 4-[3-(6-methoxyquinazolin-4-yl)propyl]-1-(3-phenylcyclobutyl)piperidine-4-carboxylic acid] | – | – | – | – | –
1 µg/mL (≈ 2.18 µM) | 2 µg/mL (≈ 4.36 µM) | > 64 µg/mL | 1 µg/mL (≈ 2.18 µM) | 1 µg/mL (≈ 2.18 µM) | COc1ccc2ccnc(CCCC3(C(=O)O)CCN(C4CC(c5ccccc5)C4)CC3)c2c1 (centres unmarked) [Example 121, 4-[3-(7-methoxyisoquinolin-1-yl)propyl]-1-(3-phenylcyclobutyl)piperidine-4-carboxylic acid] | – | – | – | – | –
1 µg/mL (≈ 2.1 µM) | 4 µg/mL (≈ 8.41 µM) | 16 µg/mL (≈ 33.6 µM) | 2 µg/mL (≈ 4.21 µM) | 4 µg/mL (≈ 8.41 µM) | COc1ccc2nccc([C@@H](O)CNC3CCN([C@H]4C[C@H](c5ccccc5)C4)CC3C(=O)O)c2c1 (stereo partly drawn) [Example 122, 4-{[(2R)-2-hydroxy-2-(6-methoxyquinolin-4-yl)ethyl]amino}-1-(trans-3-phenylcyclobutyl)piperidine-3-carboxylic acid] | – | – | – | – | –
